Test results taken from the supplement of paper PMC10920090.

Tests used:
Conditions in all cases: 72 h
BT-474 [1] = experiment: drug sensitivity score (DSS), cytotoxicity CellTox Green; higher = more cytotoxic; extreme values may be limits of the assay
Experimental: (§1)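 Targeted FIMM drug screen of 23 compounds at 5 concentrations over a 10,000-fold range in 384-well plates, 1250 cells/well, 72 h at 37 °C. Read-outs were CellTiter-Glo viability and CellTox Green cytotoxicity, normalised to DMSO and benzethonium chloride controls and summarised as drug sensitivity score (DSS). Cells stably transduced with shScramble or one of two shPPFIA1 constructs (shPPFIA1_1 TRCN0000002969, shPPFIA1_2 TRCN0000342514).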

UT-SCC-24A [2] = experiment: as above
Experimental: as §1

MDA-MB-231 [3] = experiment: as above
MDA-MB-231 [4] = experiment: drug sensitivity score (DSS), cell viability CellTiter-Glo; higher = more sensitive; extreme values may be limits of the assay
BT-474 [5] = experiment: as above
Experimental: as §1

UT-SCC-24A [6] = experiment: as above
Experimental: as §1

| SMILES | drug sensitivity score (BT-474 [1]; shRNA: shPPFIA1_1) | drug sensitivity score (BT-474 [1]; shRNA: shPPFIA1_2) | drug sensitivity score (BT-474 [1]; shRNA: shScramble) | drug sensitivity score (UT-SCC-24A [2]; shRNA: shPPFIA1_1) | drug sensitivity score (UT-SCC-24A [2]; shRNA: shPPFIA1_2) | drug sensitivity score (UT-SCC-24A [2]; shRNA: shScramble) | drug sensitivity score (MDA-MB-231 [3]; shRNA: shPPFIA1_1) | drug sensitivity score (MDA-MB-231 [3]; shRNA: shScramble) | drug sensitivity score (MDA-MB-231 [4]; shRNA: shPPFIA1_1) | drug sensitivity score (MDA-MB-231 [4]; shRNA: shScramble) | drug sensitivity score (BT-474 [5]; shRNA: shPPFIA1_1) | drug sensitivity score (BT-474 [5]; shRNA: shPPFIA1_2) | drug sensitivity score (BT-474 [5]; shRNA: shScramble) | drug sensitivity score (UT-SCC-24A [6]; shRNA: shPPFIA1_1) | drug sensitivity score (UT-SCC-24A [6]; shRNA: shPPFIA1_2) | drug sensitivity score (UT-SCC-24A [6]; shRNA: shScramble) |
| --- | --- | --- | --- | --- | --- | --- | --- | --- | --- | --- | --- | --- | --- | --- | --- | --- |
| COc1ccc(-c2ccc3ncc4c(c3c2)n(-c2ccc(N3CCNCC3)c(C(F)(F)F)c2)c(=O)n4C)cn1 [NVP-BGT226] | 2.8 DSS | 6.2 DSS | 4.8 DSS | 7.9 DSS | 6.5 DSS | 7.8 DSS | 0 DSS | 6.4 DSS | 0.8 DSS | 17.3 DSS | 9.6 DSS | 11.3 DSS | 14.2 DSS | 19.4 DSS | 20.4 DSS | 20.7 DSS |
| C[C@@H]1COC(Nc2ccc3ncnc(Nc4ccc(OCc5nccs5)c(Cl)c4)c3c2)=N1 [Varlitinib] | 3.1 DSS | 4.5 DSS | 3.9 DSS | 10.3 DSS | 10.1 DSS | 4 DSS | 0.2 DSS | 0 DSS | 1 DSS | 21.3 DSS | 8.2 DSS | 9.3 DSS | 10.7 DSS | 10.7 DSS | 11 DSS | 9 DSS |
| Cc1cc([C@@H](C)Nc2ccccc2C(=O)O)c2nc(N3CCOCC3)cc(=O)n2c1 [AZD-6482] | 0.2 DSS | 0.1 DSS | 0.1 DSS | 2 DSS | 1 DSS | 0.8 DSS | 0 DSS | 0.9 DSS | 4.2 DSS | 19.8 DSS | 1.5 DSS | 1.1 DSS | 2.1 DSS | 2.1 DSS | 1.9 DSS | 1.4 DSS |
| COc1cc2ncnc(Nc3ccc(F)c(Cl)c3)c2cc1OCCCN1CCOCC1 [Gefitinib] | 4.1 DSS | 5.6 DSS | 4.8 DSS | 19.4 DSS | 17.3 DSS | 8.3 DSS | 0 DSS | 0 DSS | 2.3 DSS | 2.3 DSS | 7.8 DSS | 9.1 DSS | 10.8 DSS | 19.6 DSS | 18.4 DSS | 12.1 DSS |
| Cc1cc(C(=O)NOCCO)c(Nc2ccc(I)cc2F)n(C)c1=O [AZD-8330] | 0 DSS | 0 DSS | 0 DSS | 28.4 DSS | 27.6 DSS | 14.2 DSS | 15 DSS | 20.3 DSS | 5.5 DSS | 21.8 DSS | 0 DSS | 0 DSS | 0 DSS | 30 DSS | 27.6 DSS | 23.9 DSS |
| CC(=O)NCC(=O)N1[C@@H]2CC[C@H]1c1ccc(Nc3ncc(C(F)(F)F)c(NC4CCC4)n3)cc12 | 3 DSS | 3.7 DSS | 3.5 DSS | 4.1 DSS | 3.9 DSS | 4.3 DSS | 2.8 DSS | 0 DSS | 5.5 DSS | 21.7 DSS | 2.7 DSS | 2.8 DSS | 4.5 DSS | 8 DSS | 8.7 DSS | 8.5 DSS |
| CN(C)C/C=C/C(=O)Nc1cc2c(Nc3ccc(F)c(Cl)c3)ncnc2cc1O[C@H]1CCOC1 [Afatinib] | 7.4 DSS | 8.7 DSS | 7.9 DSS | 20.4 DSS | 19.8 DSS | 12 DSS | 0 DSS | 0 DSS | 0.2 DSS | 1.4 DSS | 13.2 DSS | 13.3 DSS | 16.2 DSS | 18.5 DSS | 18.1 DSS | 13.4 DSS |
| CCC1=C[C@@H]2CN(C1)Cc1c([nH]c3ccccc13)[C@@](C(=O)OC)(c1cc3c(cc1OC)N(C)[C@H]1[C@@](O)(C(=O)OC)[C@H](OC(C)=O)[C@]4(CC)C=CCN5CC[C@]31[C@@H]54)C2 [Vinorelbine] | 11.1 DSS | 13.2 DSS | 13.8 DSS | 8.4 DSS | 8.4 DSS | 13.1 DSS | 7.2 DSS | 2.7 DSS | 0 DSS | 19.9 DSS | 9.2 DSS | 10 DSS | 18.7 DSS | 12 DSS | 18 DSS | 15.3 DSS |
| C#Cc1cccc(Nc2ncnc3cc(OCCOC)c(OCCOC)cc23)c1 [Erlotinib] | 0.8 DSS | 1.1 DSS | 1.2 DSS | 17.8 DSS | 11.4 DSS | 8.3 DSS | 0 DSS | 0 DSS | 2.8 DSS | 4 DSS | 2.5 DSS | 2.9 DSS | 3.9 DSS | 20.8 DSS | 14 DSS | 11.9 DSS |
| O=C(NC[C@H](O)CO)c1ccncc1Nc1ccc(I)cc1F [Pimasertib] | 0 DSS | 0.2 DSS | 0 DSS | 28.5 DSS | 23.5 DSS | 15.6 DSS | 6.2 DSS | 11.7 DSS | 2.4 DSS | 12.4 DSS | 0.1 DSS | 0.5 DSS | 0.4 DSS | 25.6 DSS | 23.4 DSS | 20.5 DSS |
| O=C(Nc1ccc2[nH]nc(-c3ccncc3)c2c1)[C@@H]1CCN(CC(=O)N2CCN(c3ccc(-c4ncccn4)cc3)CC2)C1 | 0 DSS | 0.2 DSS | 0 DSS | 21.7 DSS | 21.1 DSS | 11.6 DSS | 6 DSS | 10.9 DSS | 2.1 DSS | 10.8 DSS | 0 DSS | 0 DSS | 0 DSS | 21.3 DSS | 20.5 DSS | 17.3 DSS |
| CN[C@@H](C)C(=O)N[C@H]1CN(C(=O)CC(C)C)CC[C@H]2CC[C@@H](C(=O)NC(c3ccccc3)c3ccccc3)N2C1=O [AT-406] | 1.3 DSS | 1.4 DSS | 0.2 DSS | 7.8 DSS | 13.5 DSS | 5.3 DSS | 32.3 DSS | 19.8 DSS | 17 DSS | 3.4 DSS | 0 DSS | 0 DSS | 0 DSS | 1 DSS | 1.9 DSS | 0 DSS |
| COc1cc(C(=O)NC2CCN(C)CC2)c(F)cc1Nc1ncc2c(n1)N(C1CCCC1)CC(F)(F)C(=O)N2C [TAK-960] | 0 DSS | 0 DSS | 0 DSS | 0 DSS | 0 DSS | 0 DSS | 0 DSS | 0.9 DSS | 4.9 DSS | 20.6 DSS | 0 DSS | 0 DSS | 0 DSS | 0 DSS | 0 DSS | 0 DSS |
| O=C(NOCCO)c1ccc2cncn2c1Nc1ccc(I)cc1F [GDC-0623] | 0 DSS | 0 DSS | 0 DSS | 1.8 DSS | 0 DSS | 0.8 DSS | 5.2 DSS | 11.2 DSS | 3.7 DSS | 18.1 DSS | 0 DSS | 0 DSS | 0 DSS | 2 DSS | 0 DSS | 1.8 DSS |
| CC(C)CC(=O)Nc1n[nH]c2c1CN(C(=O)C1CCN(C)CC1)C2(C)C | 0.9 DSS | 1.1 DSS | 0.4 DSS | 1.9 DSS | 1.4 DSS | 1.2 DSS | 3.2 DSS | 0 DSS | 1.8 DSS | 20.1 DSS | 1.2 DSS | 1.3 DSS | 1.5 DSS | 8.1 DSS | 8.5 DSS | 5.8 DSS |
| CO[C@H]1C[C@@H]2CC[C@@H](C)[C@@](O)(O2)C(=O)C(=O)N2CCCC[C@H]2C(=O)O[C@H]([C@H](C)C[C@@H]2CC[C@@H](OC(=O)C(C)(CO)CO)[C@H](OC)C2)CC(=O)[C@H](C)/C=C(\C)[C@@H](O)[C@@H](OC)C(=O)[C@H](C)C[C@H](C)/C=C/C=C/C=C/1C [Temsirolimus] | 0 DSS | 0 DSS | 0 DSS | 0 DSS | 0 DSS | 0 DSS | 0 DSS | 0 DSS | 0 DSS | 7.9 DSS | 7.8 DSS | 6.2 DSS | 9.8 DSS | 2.8 DSS | 4.1 DSS | 4.4 DSS |
